Laboratory results taken from patent US20070087974A1, “TREATMENT OR PREVENTION OF RESPIRATORY VIRAL INFECTIONS WITH IMMUNOMODULATOR COMPOUNDS” (SCICLONE PHARMACEUTICALS, INC., priority 2004, published 2007).
Where two headings read alike, the source gives them in different places. Marks after values point to notes of the source that are not given here.

System: Influenza virus A—A/Achi/1/68 (H3N2)
Type: in vivo, outbred CFW female mice
[1] = 10.0 mg/kg per os for 5 days, […]

N[C@H](CCC(=O)N[C@@H](Cc1c[nH]c2ccccc12)C(=O)O)C(=O)O [SCV-07, γ-D-glutamyl-L-tryptophan]
# of mice survived (0.1 mg/kg per os for 5 days, […]): 0
# of mice survived (1.0 mg/kg per os for 5 days, […]): 0
Median survival (days) (1.0 mg/kg per os for 5 days, […], p = 0.025 compared to PBS-treated group by Log Rank test): 9.0* days
# of mice survived [1]: 0
Median survival [1]: 6.0 days
Median survival (mouse, in vivo): 7.0 days
